Drawing on BindingDB's records for doi:10.1021/bi300955k (Dalhousie University, 2012), this text covers Ki for four compounds.

For one assay, the target named is Acetylcholinesterase (Homo sapiens, UniProt P22303). The experiment in a line: Inhibition Assay. An excerpt:
(§1) Inhibition constant using AChE or BuChE.

A further assay addresses Cholinesterase (Homo sapiens, UniProt P06276). The experiment in a line: Inhibition Assay.
Text: as §1

pKi: −log10 of the molar value.

Sequence of Cholinesterase (P06276 whole entry): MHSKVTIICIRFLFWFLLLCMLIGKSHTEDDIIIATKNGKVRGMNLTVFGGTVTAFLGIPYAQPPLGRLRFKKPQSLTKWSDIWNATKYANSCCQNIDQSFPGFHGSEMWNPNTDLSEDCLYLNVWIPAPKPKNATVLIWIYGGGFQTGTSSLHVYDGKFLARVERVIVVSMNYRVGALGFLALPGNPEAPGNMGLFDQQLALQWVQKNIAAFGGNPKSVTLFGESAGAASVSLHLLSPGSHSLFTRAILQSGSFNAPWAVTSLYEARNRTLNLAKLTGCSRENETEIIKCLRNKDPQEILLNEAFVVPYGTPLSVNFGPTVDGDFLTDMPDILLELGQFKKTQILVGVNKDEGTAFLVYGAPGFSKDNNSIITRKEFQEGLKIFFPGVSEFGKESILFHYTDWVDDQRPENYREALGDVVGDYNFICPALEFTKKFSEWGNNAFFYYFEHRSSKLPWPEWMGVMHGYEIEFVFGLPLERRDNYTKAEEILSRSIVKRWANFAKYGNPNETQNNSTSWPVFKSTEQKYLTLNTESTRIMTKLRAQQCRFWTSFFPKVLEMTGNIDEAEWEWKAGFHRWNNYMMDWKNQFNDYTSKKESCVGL
Sequence of Acetylcholinesterase (P22303 whole entry): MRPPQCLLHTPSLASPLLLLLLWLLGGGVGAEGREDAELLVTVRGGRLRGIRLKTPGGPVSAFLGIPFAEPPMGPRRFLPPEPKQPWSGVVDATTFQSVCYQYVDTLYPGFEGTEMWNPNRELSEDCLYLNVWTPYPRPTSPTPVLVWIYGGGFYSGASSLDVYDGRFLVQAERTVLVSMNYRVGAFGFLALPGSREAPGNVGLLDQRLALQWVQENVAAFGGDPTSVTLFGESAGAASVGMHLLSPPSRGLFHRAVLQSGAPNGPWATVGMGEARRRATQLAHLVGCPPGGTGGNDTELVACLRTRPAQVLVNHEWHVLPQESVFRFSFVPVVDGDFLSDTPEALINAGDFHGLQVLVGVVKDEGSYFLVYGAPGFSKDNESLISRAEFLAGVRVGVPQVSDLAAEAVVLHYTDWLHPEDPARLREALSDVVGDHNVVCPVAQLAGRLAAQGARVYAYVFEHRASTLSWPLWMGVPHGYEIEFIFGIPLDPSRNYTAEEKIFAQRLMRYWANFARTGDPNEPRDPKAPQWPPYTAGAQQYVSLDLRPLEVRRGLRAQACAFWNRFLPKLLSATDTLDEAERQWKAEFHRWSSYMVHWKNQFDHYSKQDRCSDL

As for `CC(C)N(CCNC(=O)N1c2ccccc2Sc2ccccc21)C(C)C`, the pKi (usually the Ki on a negative log10 scale, so that one unit is a factor of ten) on Acetylcholinesterase was 5.79; at Cholinesterase it was 7.68. `O=C(c1c2ccccc2cc2ccccc12)N1c2ccccc2Sc2ccccc21` [Anthracen-9-yl (10H-phenothiazine-10yl) methanone, 5] gave a pKi on Cholinesterase of 7.80.

Compound `CC[N+](C)(C)c1cccc(O)c1` [Edrophonium Chloride, 3] gave a pKi at Cholinesterase of 3.70. For the compound `Cc1ccc2c(c1)sc(-c1ccc(N(C)C)cc1)[n+]2C` [Thioflavin T, 1], the values for the pKi at Acetylcholinesterase and at Cholinesterase were 5.30 and 5.44, respectively.
